The record followed here is article PMC5161367, “Discovery of Novel Small Molecule Inhibitors of VEGF Expression in Tumor Cells Using a Cell-Based High Throughput Screening Platform” (PLoS ONE, 2016).

Each structure is given as a SMILES string. Read-outs that look alike come from different tables or passages of the source.

The test system of experiment [1] is hVEGF. In words: HT1080 xenograft pharmacodynamic model, intratumor hVEGF. The class given is in vivo, mouse (human tumor xenograft). The note with it: twice per day for 7 days. The method, then:
(§1) Log phase growing tumor cells (5–10 x 10^6 cells/mouse, depending on the cell line) were implanted subcutaneously in athymic nude mice. When the average tumor size reached the indicated size, mice were randomly divided into groups and administered vehicle (5% DMSO/ 95% PEG-300) or test compounds by oral gavage. Tumor volumes were measured twice per week using digital calipers and body weights once per week. Tumor volume was determined according to the formula: L x (W)^2/2, where L is the longest dimension and W is the shortest dimension.
At the end of experiments, the tumors were excised from mice and homogenized on ice using a Powergen homogenizer fitted with Omni-Tip disposable/reusable probes (both from Fisher Scientific) in Tris-HCl buffer containing a cocktail of proteinase inhibitors. Intra-tumor human VEGF levels, as well as levels of other growth factors or proteins, were subsequently measured using commercially available ELISA kits (R&D Systems). Protein concentrations of the homogenates were determined using the Bradford protein assay (Bio-Rad) and intratumor growth factor levels were normalized to the total protein concentration.
Among the VEGF UTR-selective compounds identified, PTC-858 is a potent hit with adequate pharmaceutical properties (data not shown). These pharmaceutical properties enabled the testing of this compound in a human xenograft pharmacodynamic model in mice to measure modulation of intratumor VEGF levels. Established human HT1080 fibrosarcoma tumors grown as a xenograft in nude mice were treated with PTC-858 orally at a dose of 200 mg/kg, twice per day for 7 days. […] In addition, tumor growth was reduced by 25% after only 7 days of treatment.

In experiment [2] the test system is VEGF 5'- and 3'-UTR luciferase reporter. In words: VEGF GEMS luciferase reporter (B9 cells, VEGF UTRs) vs control reporter (B12 cells). The class given is cell-based, human. The method, then:
Luciferase assays were conducted using the Bright-Glo assay (Promega, Madison, WI), following the manufacturer’s instructions. The plates were incubated for 5 minutes at room temperature with gentle shaking before determining the level of luciferase activity. For assays done in 96-well plates, luciferase activity was monitored using a Topcount microplate reader (Perkin Elmer, USA). For HTS and assays done in 384-well plates, luciferase activity was determined using a ViewLux microplate reader (Perkin Elmer, USA).
A high throughput screen (HTS) was performed with a stable cell line designated B9 that was generated by transfecting the VEGF GEMS™ vector (Fig 1a) into HEK293 cells. Log phase growing B9 cells were trypsinized and re-suspended in growth medium containing 1x penicillin and streptomycin (Invitrogen) to form a single-cell suspension. Cell counts were determined using a hemocytometer, with cell viability greater than 98% for all assays. B9 cells were seeded (10,000 cells per well) in 384-well plates and incubated with test compound at a final concentration of 7.5 μM in duplicate in a 40 μL reaction. The final concentration of DMSO was 0.5%. A serial dilution (0.078 to 20 μM) of puromycin was included in each plate as positive control for the nonspecific inhibition of translation. After incubation for 20 hours at 37°C, 5% CO2, 20 μL of Bright-Glo substrate (Promega) were added to each well. Plates were incubated for 5 minutes at room temperature with gentle shaking. Firefly luciferase luminescence was measured on the ViewLux (PerkinElmer). Data were loaded into ActivityBase (IDBS) for analysis. The HTS plate configuration is shown in S1 Fig. The threshold for hits was set at mean + 3x SD (standard deviation). Statistical robustness was assessed by Z’-factor, defined as 1-((3 x (SDblank-control + SDDMSO-control)/(Meanblank-control + MeanDMSO-control)), where the blank control represents assay background and the DMSO control represents total signal from the DMSO treated samples.
To address the possibility that the compounds identified in the screen function by modulating general transcription processes rather than targeting processes regulated by the 5’- and/or 3’-UTRs of VEGF mRNA, we generated an additional cell line, designated as B12 that harbors the luciferase reporter flanked with control UTRs from the plasmid pCDNA3.1 vector instead of those from VEGF mRNA. Compounds that reduce luciferase activity in both cell lines are considered to be general inhibitors of transcription or translation. Therefore, those compounds that inhibit luciferase expression in B9 but not in B12 cells act through the 5’- and/or 3’-UTRs of the VEGF transcript. A subset of the compounds selective for the VEGF UTRs was identified.

Experiment [3] concerns VEGF. In words: VEGF ELISA, hypoxia-induced VEGF production in HeLa cells. The class given is cell-based. The note with it: Homo sapiens; for IC50: HeLa cells under hypoxia, read-out: IC50, inhibition of hypoxia induced VEGF production (VEGF ELISA). On the procedure: Cells were treated with vehicle control (0.5% DMSO) or compounds at the indicated concentration for 48 hours, and specific proteins in conditioned medium were quantified using commercially available ELISA kits (R&D Systems) according to the manufacturer’s recommendations. VEGF was quantified in HeLa cells under hypoxia (1% oxygen); Tumor necrosis factor alpha (TNFα) was quantified in CEM cells stimulated with 1 μg/mL interleukin-1 beta (Sigma); erythropoietin (EPO) was quantified in HepB3 cells under hypoxic conditions (1% oxygen); and granulocyte colony-stimulating factor (G-CSF), basic fibroblast growth factor (FGF-2) and insulin-like growth factor 1 (IGF-1) were quantified without induction in HT1080 cells, HeLa cells and HepG2 cells, respectively.
A sigmoid dose-response with variable slope regression curve was generated for each compound. The maximal and minimal inhibition values were set at 100% and 0%, respectively. IC50 and CC50 values were automatically calculated after curve fitting by the software.
Hits from the HTS were then evaluated for their ability to modulate hypoxia-inducible endogenous VEGF expression. HeLa cells were cultured under hypoxic conditions (1% O2, 5% CO2, balanced with nitrogen) in the presence or absence of compound at a concentration of 7.5 μM in duplicate. VEGF protein levels in the conditioned medium were quantified by ELISA. […] Compounds that reduced endogenous hypoxia-induced VEGF by 50% or more at a single concentration of 7.5 μM were further evaluated.
The IC50 values for compounds that inhibited VEGF production were determined next. A seven-point dose-response analysis was performed for each of the 137 compounds. In parallel, a dose-response cytotoxicity assay was performed to determine the CC50 (the concentration resulting in 50% cellular growth inhibition or cytotoxicity) under the same conditions as VEGF ELISA to determine whether hypoxia-induced VEGF inhibition was due to cytotoxicity.

The test system of experiment [4] is HT1080 human tumor xenografts. In words: HT1080 human tumor xenograft growth in athymic nude mice. The class given is in vivo, mouse. On the procedure: as §1
These pharmaceutical properties enabled the testing of this compound in a human xenograft pharmacodynamic model in mice to measure modulation of intratumor VEGF levels. Established human HT1080 fibrosarcoma tumors grown as a xenograft in nude mice were treated with PTC-858 orally at a dose of 200 mg/kg, twice per day for 7 days. […] In addition, tumor growth was reduced by 25% after only 7 days of treatment.
Tumors in vehicle-treated mice reached an average volume of 1 cm^3 after 15 days, while tumors in mice treated with 10 mg/kg PTC-510 reached the same volume in about 40 days, a tumor growth delay of 25 days.

For the compound `Brc1ccc2[nH]c3c(c2c1)CCCC3n1cccc1` (stereo not shown) [PTC-858, 6-bromo-1-(1H-pyrrol-1-yl)-2,3,4,9-tetrahydro-1H-carbazole], the “change of intratumor human VEGF protein levels vs vehicle” value in experiment [1] (HT1080 xenograft, 200 mg/kg orally) is “significant reduction of intratumor human VEGF protein levels”. Further, in experiment [1] (HT1080 xenograft, 200 mg/kg, oral, mean +/- SD, n = 10), the “intratumor hVEGF” value is 127.5 ± 108.6 pg/mg total tumor proteins. The “selectivity, VEGF reporter (B9) vs control reporter B12 cells” value in experiment [2] (HEK293 stable luciferase reporter lines) is reported as “greater than 2 log”. Moreover, the EC50 in experiment [3] (HeLa cells under hypoxia (1% oxygen), 48 hours, read-out: ELISA EC50, VEGF) is 13 ± 20 nM. Moreover, in experiment [3], the IC50 is 7.5 nM. This compound showed a tumor growth reduced in experiment [4] (200 mg/kg orally, twice per day, after 7 days of treatment) of 25%.

On to `COc1ccc(C2c3[nH]c4ccc(Br)cc4c3CC3C(=O)N(C4CCCCC4)C(=S)N32)cc1.O=C(O)C(F)(F)F` (stereo not shown) [PTC-510, 9-bromo-2-cyclohexyl-5-(4-methoxyphenyl)-3-thioxo-2,3,5,6,11,11a-hexahydro-1H-imidazo[1’,5’:1,6]pyrido[3,4-b]indol-1-one trifluoroacetate], for which, in experiment [1] (50 mg/kg, oral), the “effect on intratumor VEGF in HT1080 tumors” value was “selectively inhibited production of intratumor VEGF”. Further, the “VEGF UTR specificity” value in experiment [2] is listed as “yes”. In experiment [3], the IC50 was around 6 nM. Further, the EC50 in experiment [3] (HeLa cells, read-out: HeLa VEGF ELISA/SAR EC50) was 6 nM. For the same compound, the EC90 in experiment [3] (HeLa cells, read-out: HeLa VEGF ELISA/SAR EC90) was found to be 50 nM. For the same compound, in experiment [4] (10 mg/kg, oral, vehicle 15 days), the “time for tumors to reach an average volume of 1 cm^3” value is given as “about 40 days”. Further, the tumor growth delay in experiment [4] (10 mg/kg, oral, vs vehicle) was 25 days. Further, the “mice with tumors that remained too small to measure (<50 mm^3)” value in experiment [4] (50 mg/kg group, 3/7 mice, on study more than 90 days) came out at 43%. Besides, in experiment [4] (50 mg/kg, oral, dosing stopped at 50 days), the “time for tumors to reach 1 cm^3” value is listed as above 50 days. Besides, in experiment [4] (oral, 10 and 50 mg/kg), the “effect of prolonged treatment on tumor growth” value is on record as “reduced tumor growth significantly in a dose-dependent fashion”.
